{"source": "patent US6608103B2", "about": "“Inhibitor for neovasculation, cell multiplication, lumen formation and FGF” (Fuji Chemical Industry Co., Ltd., priority 2001, dated 2003)", "key": {"[1]": {"test_system": "BAEC", "assay": "Neovasculation / lumen formation of BAEC between two layers of type I collagen gel", "format": "cell-based, bovine", "experimental": "BAEC was cultured between two layers of type I collagen gel, and a lumen-like netting structure formed therebetween was evaluated.\n(§1) Eight parts by volume of “Vitrogen Collagen” (Collagen Co.), 1 part by volume of 0.1 N NaOH and 1 part by volume of ×10 MEM (GIBCO BRL) were placed in a tube, and mixed quickly in an ice bath. The culture solution was removed by suction, and 0.5 ml/well of the above mixture containing collagen was pipetted into each well. The microplate was placed in a CO2 incubator for about 30 minutes to gelatinize it. 1.5 ml of a medium (MEM | 2% FBS) containing a sample was added, and continued to incubate while changing the medium every second day.\n(§2) The variation of cells were observed by a microscope by taking a photograph, and lumen formation was evaluated by counting the number of branches of cells forming lumen.\nThe inhibition test against lumen formation was carried out in the same manner as Example 15, except that α-tocopherol was substituted for DL-α-tocotrienol."}, "[2]": {"test_system": "BAEC", "assay": "Cell multiplication of BAEC, survival rate of cells using WST-1", "format": "cell-based, bovine", "settings": "for Survival Rate of Cells (% of control): 24 hours, WST-1", "experimental": "Influence of tocotrienols on cell multiplication of BAEC was examined in various concentrations. The cell multiplication was evaluated by determining the survival rate of cells using WST-1, which makes it possible to conduct high sensitivity measurement, instead of conventional MTT.\nAs a blank, the culture medium alone was incubated without adding cells. […] The microplate was taken out after 24 hours from placing the culture medium containing a sample. 10 μl/well of WST-1 solution was added to each well, and incubated in a CO2 incubator. After 3 hours, absorbance at 450 nm and 655 nm (dual) of each well was measured by a microplate reader.\nThe samples employed were DL-α-tocotrienol, DL-γ-tocotrienol and DL-δ-tocotrienol. In the case of Control group I, no sample was added.\nThe survival rate of cells was determined by the following formula:\nSurvival Rate of Cells=(S−B)/(C−B)×100(%)\nThe results of Table 10 were made in a graph shown in FIG. 1, and median growth inhibition concentration (IC50) was determined from the graph. In the figure, the numbers on the ordinate indicate the survival rate of cells (% of control), and the numbers on the abscissa indicate concentration (μM). ● is DL-α-tocotrienol, ▪ is DL-β-tocotrienol, Δ is DL-γ-tocotrienol, and X is DL-δ-tocotrienol, respectively."}, "[3]": {"test_system": "BAEC", "assay": "Measurement of LDH activity, rate of cell damage of BAEC", "experimental": "A rate of cell damage of BAEC by the sample was evaluated by measuring free LDH activity in a culture medium using a kit for LDH-cytotoxicity testing (Wako Co.)\n(§3) BAEC with confluent growth were treated with trypsin, and suspended in MEM | 10% FBS in a concentration of 5×10^4 cell/ml. The cell suspension was placed in each well of a 96 well-microplate in an amount of 100 μl/well, and incubated overnight in a CO2 incubator. The culture solution in each well was removed, and changed to 100 μl culture medium (MEM+2% FBS) containing a sample to continue incubation. In the experiment, MEM+2% FBS was employed as a negative control (NC), and 2% Tween 20 dissolved in MEM | 2% FBS was employed as a positive control (PC). After 48 hours, 50 μl culture medium in each well was transferred to a new well, and the color producing reagent in the kit was added to the new wells in an amount of 50 μl/well. After incubating for 45 minutes at room temperature, reaction was terminated by adding 100 μl of 0.5 N HCL/well, and absorbance at 595 nm was measured. The rate of cell damage was determined by the following formula:\n(§4) Rate of Cell Damage=(S−N)/(P−N)×100(%)\nN: Absorbance of negative control\nP: Absorbance of positive control\nIn Control group G, no sample was added.\nThe assay was carried out in the same manner as Example 30, except that the tocotrienol was replaced by α-tocopherol."}, "[4]": {"test_system": "BAEC", "assay": "Inhibition against lumen formation induced by FGF", "format": "cell-based, bovine", "set-up": "key to Lumen Formation: ↑: Accelerated; /: Tendency to increase; No change; ↓: Inhibited; ↓↓: Strongly inhibited", "experimental": "as §1, §2\nThe test was carried out similar to Examples 12-14, wherein FGF was added together with each tocotrienol. In the case of Control group E, no sample was added. […]"}, "[5]": {"test_system": "BAEC", "assay": "Inhibitory action against FGF activity, MTT assay on BAEC with FGF 20 ng/ml", "format": "cell-based, bovine", "set-up": "key to Cell Multiplication: ↑: Accelerated; /: Tendency to increase; No change; ↓: Inhibited; ↓↓: Strongly inhibited", "settings": "for Absorbance: MTT, FGF 20 ng/ml + sample 10 μM", "experimental": "The fibroblast growth factor sample was prepared by dissolving a commercial FGF (Sigma Chemical Co.) in MEM (Sigma Chemical Co.)\n(§5) Each one microplate was taken out after 0, 24, 48 or 96 hours from placing the culture medium containing a sample. In the case of the microplate taken out after 96 hours, the culture medium was once changed after 48 hours. 3 mg/ml MTT solution PBS (−) was put in each well in an amount of 50 μl/well, and incubated for 3 hours in a CO2 incubator. After filling each well with phosphate buffered saline (PBS(−)), liquid in each well was evacuated, and isopropyl alcohol containing 0.04 mol/l HCL was put in each well in an amount of 200 μl/well. The microplates were allowed to stand overnight in a dark place, and then, absorbance at 595 nm and 655 nm (dual) was measured by a microplate reader.\nIn the case of Control group B, no sample was added."}, "[6]": {"test_system": "BAEC", "assay": "Cell damage action (LDH) with FGF added", "settings": "FGF 20 ng/ml + sample 10 μM", "experimental": "as §3, §4\nCell damage action of DL-α-tocotrienol, DL-β-tocotrienol, DL-γ-tocotrienol, DL-δ-tocotrienol and the tocotrienol mixture was examined against FGF. […] In Control group H, no sample was added.\nThe assay was carried out in the same manner as Example 36, except that the tocotrienol was replaced by α-tocopherol."}, "[7]": {"test_system": "BAEC", "assay": "Effects of tocotrienols on multiplication of BAEC, MTT assay", "format": "cell-based, bovine", "settings": "for Absorbance: MTT, sample 10 μM", "experimental": "Normal bovine aortic endothelial cells (BAEC) were manufactured by Cell Systems Co., and purchased through Dainippon Seiyaku Co., Ltd.\nA cell suspension was prepared by adding the cells to MEM (Sigma Chemical Co.) containing 10 v/v (%) fetal bovine serum (FBS), 20 IU/ml penicillin and 20 IU/ml streptomycin (MEM+10% FBS) in a concentration of 1×10^5 cells/ml, and cultured in a 5% CO2 incubator at 37° C. by using a 60 mm dish coated with type I collagen with subculturing every 2 to 3 days.\nEach of the above samples was added to MEM containing 2% (v/v) FBS, 20 IU/ml penicillin and 20 IU/ml streptomycin (MEM+2% FBS), and subjected to testing.\nEffects of tocotrienols on the multiplication of BAEC were examined by using MTT assay.\nas §5\nIn the case of Control group A, no sample was added."}, "[8]": {"settings": "summary, FGF (20 ng/ml) + sample (10 μM)"}}, "note": "Entries after “also recorded” stand apart in the source; their conditions may differ."}
{"smiles": "CC(C)=CCC/C(C)=C/CC/C(C)=C/CC[C@]1(C)CCc2cc(O)c(C)c(C)c2O1", "note": "(racemic) [DL-γ-Tocotrienol, γ-tocotrienol]", "values": [{"measurement": "inhibition of lumen formation", "setting": "[1]; 10 μM", "result": "inhibited lumen formation sufficiently"}, {"measurement": "Number of Cells Forming Lumen/cm^2", "setting": "[1]; Table 4, 10 μM", "result": "4.75 ± 0.48 /cm^2"}, {"measurement": "Survival Rate of Cells (% of control)", "setting": "[2]; 10 μM", "result": "102.3 ± 10.8 % of control"}, {"measurement": "Survival Rate of Cells (% of control)", "setting": "[2]; 12 μM", "result": "15.5 ± 4.5 % of control"}, {"measurement": "Survival Rate of Cells (% of control)", "setting": "[2]; 14 μM", "result": "3.4 ± 3.1 % of control"}, {"measurement": "Survival Rate of Cells (% of control)", "setting": "[2]; 16 μM", "result": "0.0 ± 0.1 % of control"}, {"measurement": "Survival Rate of Cells (% of control)", "setting": "[2]; 18 μM", "result": "2.0 ± 2.8 % of control"}, {"measurement": "IC50", "setting": "[2]; determined from the graph of FIG. 1 (abscissa μM), read-out: median growth inhibition concentration (IC50)", "result": 11, "unit": "µM"}, {"measurement": "activity to damage cells", "setting": "[3]; 10 μM, Table 7", "result": "have an activity to damage cells"}, {"measurement": "Rate of Cell Damage (% of control)", "setting": "[3]; Table 7, 10 μM, 48 hours", "result": "265.33 ± 3.18 % of control"}, {"measurement": "inhibition of lumen formation induced by FGF", "setting": "[4]; 10 μM + FGF 20 ng/ml", "result": "inhibited the lumen formation induced by FGF; also recorded: exhibit inhibitory action against lumen formation"}, {"measurement": "Number of Cells Forming Lumen/cm^2", "setting": "[4]; sample 10 μM + FGF 20 ng/ml", "result": "12.50 ± 3.20 /cm^2"}, {"measurement": "Lumen Formation", "setting": "[4]; [8]", "result": "↓"}, {"measurement": "Absorbance", "setting": "[5]; 0 hr", "result": "0.042 ± 0.002"}, {"measurement": "Absorbance", "setting": "[5]; 24 hrs", "result": "0.085 ± 0.004"}, {"measurement": "Absorbance", "setting": "[5]; 48 hrs", "result": "0.232 ± 0.016"}, {"measurement": "Absorbance", "setting": "[5]; 96 hrs", "result": "0.431 ± 0.011"}, {"measurement": "Cell Multiplication", "setting": "[5]; [8]", "result": "↑"}, {"measurement": "Rate of Cell Damage (% of control)", "setting": "[6]", "result": "101.15 ± 2.38 % of control"}, {"measurement": "inhibitory action against cell multiplication", "setting": "[7]; 10 μM, Table 1", "result": "remarkable inhibitory action"}, {"measurement": "Absorbance", "setting": "[7]; 0 hr", "result": "0.101 ± 0.002"}, {"measurement": "Absorbance", "setting": "[7]; 24 hrs", "result": "0.020 ± 0.001"}, {"measurement": "Absorbance", "setting": "[7]; 48 hrs", "result": "0.010 ± 0.002"}, {"measurement": "Absorbance", "setting": "[7]; 96 hrs", "result": "0.003 ± 0.000"}]}
